Measured values reported in patent publication US12653900B2, “Antibody drug conjugates comprising ecteinascidin derivatives” (PHARMA MAR, S.A., priority 2018, dated 2026).
Converted amounts (≈) assume the structure as drawn. “And” between values parts separate entries of the source, which are not always exact repeats. Equal entries are not always repeated. Where two headings read alike, the source gives them in different places.

Tests used:
HCC-1954 (HER2+) = test: In vitro cytotoxicity of ADCs and related reagents, SRB assay; format: cell-based; conditions: Homo sapiens, HCC1954
Method: (§1) Sulforhodamine B colorimetric assay for cytotoxicity screening. […] Briefly, cells were seeded in 96-well microtiter plates and allowed to stand for 24 hours in drug-free medium before treatment with vehicle alone or with the tested substances for 72 hours.
(§2) Cell survival was expressed as percentage of control, untreated cell survival.

MCF-7 (HER2−) = test: as above; format: cell-based; conditions: Homo sapiens, MCF7
Method: as §1, §2

MDA-MB-231 (HER2−) = test: as above; format: cell-based; conditions: Homo sapiens
Method: as §1, §2

SK-BR-3 (HER2+) = test: as above; format: cell-based; conditions: Homo sapiens
Method: as §1, §2

[1] = tested on: SK-BR-3, HCC-1954, MDA-MB-231 and MCF-7 cells; test: In vitro cytotoxicity across the HER2 breast cancer cell panel and HER2 selectivity; format: cell-based
Method: For SK-BR-3, HCC-1954, MDA-MB-231 and MCF-7 cells, a colorimetric assay using Sulforhodamine B (SRB) was adapted for quantitative measurement of cell growth and cytotoxicity, as described in V. Vichai and K. Kirtikara. Sulforhodamine B colorimetric assay for cytotoxicity screening. Nature Protocols, 2006, 1, 1112-1116. Briefly, cells were seeded in 96-well microtiter plates and allowed to stand for 24 hours in drug-free medium before treatment with vehicle alone or with the tested substances for 72 hours.
as §2
Standard dose-response (DR) curves for 72 hours incubation with the tested substances were performed.

A549 = format: cell-based; conditions: A549, 72 hours treatment, SRB
Excerpt: (§3) Evaluation of Cytotoxic Activity Using the SRB and the MTT Colorimetric Assays

PSN1 = format: cell-based; conditions: PSN1, 72 hours treatment, SRB
Excerpt: as §3

HT29 = test: cells; format: cell-based; conditions: HT29, 72 hours treatment, SRB
Excerpt: as §3

MDA-MB-231 = test: cells; format: cell-based; conditions: MDA-MB-231, 72 hours treatment, SRB
Excerpt: as §3

HT-1080 (CD13+) = test: In vitro cytotoxicity of ADCs and related reagents, MTT assay; format: cell-based; conditions: Homo sapiens, read-out: IC50 HT-1080 (CD13 positive); HT-1080 cells; geometric mean of the IC50 values of three experiments
Excerpt: as §2

NB 4 (CD13+) = test: as above; format: cell-based, human; conditions: NB-4 cells, geometric mean of the IC50 values of three experiments; for IC50: read-out: IC50 NB-4 (CD13 positive)
Method: (§4) Briefly, cells were seeded in 96-well trays and treated as above and after 72 hours of exposure to the tested substances cellular viability was estimated from conversion of MTT (Sigma, St Louis, MO, USA) to its coloured reaction product, MTT-formazan, which was dissolved in DMSO to measure its absorbance at 540 nm in a microplate spectrophotometer.
as §2

RPMI 8226 (CD13−) = test: as above; format: cell-based, human; conditions: RPMI8226 cells, geometric mean of the IC50 values of three experiments; for IC50: read-out: IC50 RPMI8226 (CD13 negative)
Method: as §4, §2

Raji (CD13−) = test: as above; format: cell-based, human; conditions: Raji cells, geometric mean of the IC50 values of three experiments; for IC50: read-out: IC50 Raji (CD13 negative)
Method: as §4, §2

[2] = tested on: HT-1080, NB 4, Raji and RPMI 8226 cells; test: In vitro cytotoxicity across the CD13 cell panel and CD13 selectivity; format: cell-based, human; conditions: CD13 positive and negative cell lines
Excerpt: as §2

[3] = HCC-1954, HER2 positive, 72 hours, read-out: IC50
[4] = MCF-7, HER2 negative, 72 hours, read-out: IC50
[5] = MDA-MB-231, HER2 negative, 72 hours, read-out: IC50
[6] = SK-BR-3, HER2 positive, 72 hours, read-out: IC50
[7] = Homo sapiens, read-out: IC50 values, range over the four cell lines
[8] = Homo sapiens, read-out: geometric mean IC50 value across the whole cell panel
[9] = read-out: LC50 (the source's name)

## COc1c(C)cc2c(c1O)[C@@H]1[C@@H]3[C@@H]4SC[C@]5(N[C@@H](CNC(=O)OCc6ccc(NC(=O)[C@H](C)NC(=O)[C@@H](NC(=O)CCOCCOCCOCCOCCNC(=O)CCN7C(=O)C=CC7=O)C(C)C)cc6)Cc6c5[nH]c5ccccc65)C(=O)OC[C@@H](c5c6c(c(C)c(OC(C)=O)c54)OCO6)N3[C@@H](O)[C@H](C2)N1C [DL 5]
HCC-1954 (HER2+); [3]
  IC50: 0.191 µg/mL and 127 nM
MCF-7 (HER2−); [4]
  IC50: 0.17 µg/mL and 113 nM
MDA-MB-231 (HER2−); [5]
  IC50: 0.0981 µg/mL and 65.3 nM
SK-BR-3 (HER2+); [6]
  IC50: 0.0981 µg/mL and 65.3 nM
[1]; [7]
  IC50: 0.1 µg/mL to 0.19 µg/mL and 65.3 nM to 127 nM
[1]; [8]
  IC50: 0.13 µg/mL and 88.4 nM

## COc1ccc2[nH]c3c(c2c1)C[C@H](CN)N[C@]31CS[C@@H]2c3c(OC(C)=O)c(C)c4c(c3[C@H](COC1=O)N1[C@@H]2[C@H]2c3c(cc(C)c(OC)c3O)C[C@@H]([C@@H]1O)N2C)OCO4 [27-R]
A549
  TGI: 3.93E-09 Molar
PSN1
  TGI: 1.17E-09 Molar
HT29
  TGI: 5.53E-10 Molar
MDA-MB-231
  TGI: 5.41E-10 Molar

## COc1c(C)cc2c(c1O)[C@@H]1[C@@H]3[C@@H]4SC[C@]5(N[C@@H](CN)Cc6c5[nH]c5ccccc65)C(=O)OC[C@@H](c5c6c(c(C)c(OC(C)=O)c54)OCO6)N3[C@@H](O)[C@H](C2)N1C [12-R]
HCC-1954 (HER2+); [3]
  IC50: 0.00127 µg/mL and 1.62 nM
MDA-MB-231 (HER2−); [5]
  IC50: 0.000493 µg/mL and 0.629 nM
SK-BR-3 (HER2+); [6]
  IC50: 0.000441 µg/mL and 0.562 nM
HT-1080 (CD13+)
  IC50: 0.0011 µg/mL and 1.4 nM
NB 4 (CD13+); Homo sapiens
  IC50: 0.00033 µg/mL and 0.421 nM
RPMI 8226 (CD13−); Homo sapiens, RPMI-8226
  IC50: 0.00083 µg/mL and 1.06 nM
Raji (CD13−); Homo sapiens
  IC50: 0.00047 µg/mL and 0.6 nM
[1]; [7]
  IC50: 0.0004 µg/mL to 0.0013 µg/mL and 0.562 nM to 1.62 nM
[1]; [8]
  IC50: 0.00071 µg/mL and 0.906 nM
[2]; [7]
  IC50: 0.0003 µg/mL to 0.0011 µg/mL and 0.421 nM to 1.4 nM
[2]; [8]
  IC50: 0.0006 µg/mL and 0.78 nM

## COc1ccc2[nH]c3c(c2c1)C[C@@H](CN)N[C@]31CS[C@@H]2c3c(OC(C)=O)c(C)c4c(c3[C@H](COC1=O)N1[C@@H]2[C@H]2c3c(cc(C)c(OC)c3O)C[C@@H]([C@@H]1O)N2C)OCO4 [27-S]
A549
  TGI: 1.12E-08 Molar
PSN1
  TGI: 2.83E-09 Molar
HT29
  TGI: 1.35E-09 Molar

## COc1c(C)cc2c(c1O)[C@@H]1[C@@H]3[C@@H]4SC[C@]5(N[C@@H](CNC(=O)OCc6ccc(NC(=O)[C@H](CCCNC(N)=O)NC(=O)[C@@H](NC(=O)CCCCCN7C(=O)C=CC7=O)C(C)C)cc6)Cc6c5[nH]c5ccccc65)C(=O)OC[C@@H](c5c6c(c(C)c(OC(C)=O)c54)OCO6)N3[C@@H](C#N)[C@H](C2)N1C [DL 1]
HCC-1954 (HER2+); [3]
  IC50: 0.18 µg/mL and 129 nM
MCF-7 (HER2−); [4]
  IC50: 0.433 µg/mL and 311 nM
MDA-MB-231 (HER2−); [5]
  IC50: 0.0728 µg/mL and 52.3 nM
SK-BR-3 (HER2+); [6]
  IC50: 0.116 µg/mL and 83.1 nM
[1]; [7]
  IC50: 0.07 µg/mL to 0.43 µg/mL and 52.3 nM to 311 nM
[1]; [8]
  IC50: 0.16 µg/mL and 115 nM

## COc1c(C)cc2c(c1O)[C@@H]1[C@@H]3[C@@H]4SC[C@]5(N[C@@H](CNC(=O)OCc6ccc(NC(=O)[C@H](CCCNC(N)=O)NC(=O)[C@@H](NC(=O)CCOCCOCCOCCOCCNC(=O)CCN7C(=O)C=CC7=O)C(C)C)cc6)Cc6c5[nH]c5ccccc65)C(=O)OC[C@@H](c5c6c(c(C)c(OC(C)=O)c54)OCO6)N3[C@@H](C#N)[C@H](C2)N1C [DL 2]
HCC-1954 (HER2+); [3]
  IC50: 0.31 µg/mL and 194 nM
MCF-7 (HER2−); [4]
  IC50: 0.469 µg/mL and 294 nM
MDA-MB-231 (HER2−); [5]
  IC50: 0.2 µg/mL and 125 nM
SK-BR-3 (HER2+); [6]
  IC50: 0.2 µg/mL and 125 nM
[1]; [7]
  IC50: 0.2 µg/mL to 0.47 µg/mL and 125 nM to 294 nM
[1]; [8]
  IC50: 0.28 µg/mL and 173 nM

## COc1c(C)cc2c(c1O)[C@@H]1[C@@H]3[C@@H]4SC[C@]5(N[C@@H](CNC(=O)OCc6ccc(NC(=O)[C@H](C)NC(=O)[C@@H](NC(=O)CCOCCOCCOCCOCCNC(=O)CCN7C(=O)C=CC7=O)C(C)C)cc6)Cc6c5[nH]c5ccccc65)C(=O)OC[C@@H](c5c6c(c(C)c(OC(C)=O)c54)OCO6)N3[C@@H](C#N)[C@H](C2)N1C [DL 3]
HCC-1954 (HER2+); [3]
  IC50: 0.24 µg/mL and 159 nM
MCF-7 (HER2−); [4]
  IC50: 0.279 µg/mL and 185 nM
MDA-MB-231 (HER2−); [5]
  IC50: 0.15 µg/mL and 99.3 nM
SK-BR-3 (HER2+); [6]
  IC50: 0.16 µg/mL and 106 nM
[1]; [7]
  IC50: 0.15 µg/mL to 0.28 µg/mL and 99.3 nM to 185 nM
[1]; [8]
  IC50: 0.2 µg/mL and 133 nM

## COc1c(C)cc2c(c1O)C1C3C4SCC5(NC(COC(C)=O)Cc6c5[nH]c5ccccc65)C(=O)OCC(c5c6c(c(C)c(OC(C)=O)c54)OCO6)N3C(C#N)C(C2)N1C (stereo not drawn) [3a-S]
A549
  GI50: 3.11 nM
  LC50 (concentration giving 50% net cell kill): > 120 nM
  TGI: 3.23E-09 Molar
PSN1
  GI50: 2.15 nM
  TGI: 3.59E-09 Molar
PSN1; [9]
  CC50: 12 nM
HT29
  GI50: 2.99 nM
  TGI: 3.23E-09 Molar
HT29; [9]
  CC50: > 120 nM
MDA-MB-231
  GI50: 2.87 nM
  TGI: 3.59E-09 Molar
MDA-MB-231; [9]
  CC50: 4.9 nM

## COc1c(C)cc2c(c1O)[C@@H]1[C@@H]3[C@@H]4SC[C@]5(N[C@@H](CN)Cc6c5oc5ccccc65)C(=O)OC[C@@H](c5c6c(c(C)c(OC(C)=O)c54)OCO6)N3[C@@H](C#N)[C@H](C2)N1C [46-R]
HT29; Homo sapiens, HT-29
  IC (TGI): 1.39 nM
MDA-MB-231; Homo sapiens
  IC (TGI): 1.39 nM

## COc1c(C)cc2c(c1O)[C@@H]1[C@@H]3[C@@H]4SC[C@]5(N[C@@H](CN)Cc6c5[nH]c5ccccc65)C(=O)OC[C@@H](c5c6c(c(C)c(OC(C)=O)c54)OCO6)N3[C@@H](C#N)[C@H](C2)N1C [11-R]
NB 4 (CD13+)
  IC50 NB-4 (CD13 positive): 0.46 ng/mL (≈ 0.58 nM)
  IC50: 0.58 nM
RPMI 8226 (CD13−)
  IC50 RPMI8226 (CD13 negative): 0.928 ng/mL (≈ 1.17 nM)
  IC50: 1.17 nM
Raji (CD13−)
  IC50 Raji (CD13 negative): 0.967 ng/mL (≈ 1.22 nM)
  IC50: 1.22 nM
[1]; SK-BR-3, HCC-1954, MDA-MB-231, MCF-7
  geometric mean IC50 value across the whole cell panel: 0.79 ng/mL
[1]; SK-BR-3, HCC-1954, MDA-MB-231, MCF-7, read-out: geometric mean IC50 value across the whole cell panel
  IC50: 0.994 nM
[2]
  geometric mean IC50 value across the whole cell panel: 0.84 ng/mL
[2]; read-out: geometric mean IC50 value across the whole cell panel
  IC50: 1.06 nM

## COc1c(C)cc2c(c1O)[C@@H]1[C@@H]3[C@@H]4SC[C@]5(N[C@@H](CNC(=O)OCc6ccc(NC(=O)[C@H](CCCNC(N)=O)NC(=O)[C@@H](NC(=O)CCCCCN7C(=O)C=CC7=O)C(C)C)cc6)Cc6c5[nH]c5ccccc65)C(=O)OC[C@@H](c5c6c(c(C)c(OC(C)=O)c54)OCO6)N3[C@@H](O)[C@H](C2)N1C [DL 6]
HCC-1954 (HER2+); HCC-1954 cells, 72 hours incubation, read-out: IC50 HCC-1954 (HER2 positive)
  IC50: 0.171 µg/mL and 124 nM
MCF-7 (HER2−); MCF-7 cells, 72 hours incubation, read-out: IC50 MCF-7 (HER2 negative)
  IC50: 0.273 µg/mL and 197 nM
MDA-MB-231 (HER2−); MDA-MB-231 cells, 72 hours incubation, read-out: IC50 MDA-MB-231 (HER2 negative)
  IC50: 0.0429 µg/mL and 31 nM
SK-BR-3 (HER2+); SK-BR-3 cells, 72 hours incubation, read-out: IC50 SK-BR-3 (HER2 positive)
  IC50: 0.0709 µg/mL and 51.3 nM
[1]; [7]
  IC50: 0.04 µg/mL to 0.3 µg/mL and 31 nM to 197 nM
[1]; [8]
  IC50: 0.11 µg/mL and 78.9 nM
